Reference: patent US9187415B2, “Sulfonamides as HIV protease inhibitors” (Merck Canada Inc., priority 2010, dated 2015)
Like-named read-outs stand apart in the source and are kept apart here.

How the values were obtained:
[1] = system: human immunodeficiency virus type 1; test: Acute Infection Assay (Spread); format: cell-based, HIV-1
Source text: Acute Infection Assay (“Spread”) data were generated in 10% FBS, and according to the methods disclosed by J. P. Vacca et al, “L-735,524: An orally bioavailable human immunodeficiency virus type 1 protease inhibitor,” Proc. Nati. Acad. Sci. USA, Vol. 91, pp. 4096-4100 (April 1994).

[2] = molecular target: T1, HIV-1 protease (wild type) (Human immunodeficiency virus type 1 group M subtype B, UniProt P04585); test: Protease Inhibition Assay (Pepcleave), inhibition of microbial expressed HIV protease; format: biochemical
T1 construct: made in house; host or cells: Escherichia coli
Protocol: Assay for Inhibition of Microbial Expressed HIV Protease
Inhibition studies of the reaction of the protease (which was expressed in Eschericia coli) with a peptide substrate [Val-Ser-Gln-Asn-(betanaphtyl)Ala-Pro-Ile-Val]. The inhibitor is first preincubated with the HIV-1 protease (wild type) enzyme in assay buffer (50 mM sodium acetate, pH 5.5, 100 mM NaCl, and 0.1% BSA) for 30 minutes at room temperature. Substrate is added to 400 micromolar in a total volume of 80 microliters containing 10 picomolar HIV-1 protease and the reaction is incubated for 1 hour at 30° C. The reaction is quenched with the addition of 120 microliters of 10% phosphoric acid. The product formation is determined after separation of product and substrate on a Zorbax Eclipse XDB-C18 column connected to an Agilent 1100 high performance liquid chromatography system with fluorescence detection (excitation 270 nanometer and emission 330 nanometer). Alternatively, the inhibitor is preincubated with enzyme and substrate as described above, but in a total volume of 20 microliters containing 20 picomolar HIV-1 protease and the reaction is incubated for 1 hour at 30° C. The reaction is quenched with the addition of 30 microliters of 1 micromolar indinavir (indinavir is also used as an internal standard), and the product formation is determined after separation of product and substrate on a Zorbax Eclipse XDB-C18 column connected to an API 4000 mass spectrometer (Applied Biosystems) with multiple reaction monitoring (transitions were 644.5/428.9 and 615.4/422.2 (M1/M3) for product and indinavir respectively). The extent of inhibition of the reaction is determined from the peak area of the products. HPLC of the products, independently synthesized, provided quantitation standards and confirmation of the product composition.
Protease Inhibition Assay (“Pepcleave”) data were collected based on the wild-type HIV-1 protease enzyme. The assay monitors the cleavage of a 8-mer peptide (VSQN[β-Nal]PIV) where the tyrosine at P1 position is replaced by β-Naphthyl-alanine. Upon cleavage of the peptide by HIV-1 protease, the product is separated from substrate by HPLC column and detected at Ex.=270 nm/Em=330 nm.

[3] = Human immunodeficiency virus 1, 10% FBS, mean of at least two independent experiments, read-out: Spread IC95
[4] = wild-type HIV-1 protease, mean of at least two independent experiments, read-out: Pepcleave Enzyme inhibition IC50

Row | SMILES | IC95 [1, 3] | IC50 [2, 4] | IC50 [2] | IC95 ([1]; Human immunodeficiency virus 1, read-out: Spread IC95)
1 | COC(=O)N[C@H](C(=O)Nc1ccccc1CC[C@@H](CO)N(CCC(C)C)S(=O)(=O)c1ccc(N)cc1)C(c1ccccc1)c1ccccc1 [Example 1, N-{2-[(3S)-3-{[(4-aminophenyl)sulfonyl](3-methylbutyl)amino}-4-hydroxybutyl]phenyl}-Nα-(methoxycarbonyl)-β-phenyl-L-phenylalaninamide] | 0.074 µM | 0.02 nM |  | 
2 | COC(=O)N[C@H](C(=O)Nc1ccccc1CC[C@@H](CO)N(C(C)C)S(=O)(=O)c1ccc(N)cc1)C(c1ccccc1)c1ccccc1 [Example 2, N-{2-[(3S)-3-{[(4-aminophenyl)sulfonyl](propan-2-yl)amino}-4-hydroxybutyl]phenyl}-Nα-(methoxycarbonyl)-β-phenyl-L-phenylalaninamide] | 0.919 µM |  | 1.2 nM | 
3 | COC(=O)N[C@H](C(=O)Nc1ccccc1CC[C@@H](CO)N(CC1CC1)S(=O)(=O)c1ccc(N)cc1)C(c1ccccc1)c1ccccc1 [Example 3, N-{2-[(3S)-3-{[(4-aminophenyl)sulfonyl](cyclopropylmethyl)amino}-4-hydroxybutyl]phenyl}-Nα-(methoxycarbonyl)-β-phenyl-L-phenylalaninamide] |  | 0.2 nM |  | 0.307 µM
4 | COC(=O)N[C@H](C(=O)Nc1ccccc1CC[C@@H](CO)N(Cc1cnoc1)S(=O)(=O)c1ccc(N)cc1)C(c1ccccc1)c1ccccc1 [Example 4] | 0.838 µM |  | 0.2 nM | 
5 | COC(=O)N[C@H](C(=O)Nc1ccccc1CC[C@@H](CO)N(Cc1cncnc1C)S(=O)(=O)c1ccc(N)cc1)C(c1ccccc1)c1ccccc1 [Example 5, N-{2-[(3S)-3-{[(4-aminophenyl)sulfonyl][(4-methylpyrimidin-5-yl)methyl]amino}-4-hydroxybutyl]phenyl}-Nα-(methoxycarbonyl)-β-phenyl-L-phenylalaninamide] | 1.19 µM |  | 0.7 nM | 
6 | COC(=O)N[C@H](C(=O)Nc1ccccc1CC[C@@H](CO)N(Cc1cn[nH]c1)S(=O)(=O)c1ccc(N)cc1)C(c1ccccc1)c1ccccc1 [Example 6, N-{2-[(3S)-3-{[(4-aminophenyl)sulfonyl](1H-pyrazol-4-ylmethyl)amino}-4-hydroxybutyl]phenyl}-Nα-(methoxycarbonyl)-β-phenyl-L-phenylalaninamide] | 2.34 µM |  | 0.07 nM | 
7 | [2H]C([2H])([2H])C([2H])(C([2H])([2H])[2H])C([2H])([2H])N([C@H](CO)CCc1ccccc1NC(=O)[C@@H](NC(=O)OC)C(c1ccccc1)c1ccccc1)S(=O)(=O)c1ccc2ncsc2c1 [Example 8, N-(2-{(3S)-3-[(1,3-benzothiazol-6-ylsulfonyl)(2-methylpropyl-d9)amino]-4-hydroxybutyl}phenyl)-Nα-(methoxycarbonyl)-β-phenyl-L-phenylalaninamide] | 1.55 µM |  | 1.7 nM | 
8 | COC(=O)N[C@H](C(=O)Nc1ccccc1CC[C@@H](CO)N(CCC(C)C)S(=O)(=O)c1ccc2ncsc2c1)C(c1ccccc1)c1ccccc1 [Example 9, N-(2-{(3S)-3-[(1,3-benzothiazol-6-ylsulfonyl)(3-methylbutyl)amino]-4-hydroxybutyl}phenyl)-Nα-(methoxycarbonyl)-β-phenyl-L-phenylalaninamide] | 0.957 µM |  | 0.3 nM | 
9 | [2H]C([2H])([2H])C([2H])([2H])C([2H])([2H])N([C@H](CO)CCc1ccccc1NC(=O)[C@@H](NC(=O)OC)C(c1ccccc1)c1ccccc1)S(=O)(=O)c1ccc2ncsc2c1 [Example 10, N-(2-{(3S)-3-[(1,3-benzothiazol-6-ylsulfonyl)(propyl-d7)amino]-4-hydroxybutyl}phenyl)-Nα-(methoxycarbonyl)-β-phenyl-L-phenylalaninamide] | 1.19 µM |  | 0.7 nM | 
10 | COC(=O)N[C@H](C(=O)Nc1ccccc1CC[C@@H](CO)N(Cc1cn(C)nc1C)S(=O)(=O)c1ccc2ncsc2c1)C(c1ccccc1)c1ccccc1 [Example 11, N-{2-[(3S)-3-{(1,3-benzothiazol-6-ylsulfonyl)[(1,3-dimethyl-1H-pyrazol-4-yl)methyl]amino}-4-hydroxybutyl]phenyl}-Nα-(methoxycarbonyl)-β-phenyl-L-phenylalaninamide] | 0.683 µM |  | 0.05 nM | 
11 | COC(=O)N[C@H](C(=O)Nc1ccccc1CC[C@@H](CO)N(CC1CC(F)(F)C1)S(=O)(=O)c1ccc2ncsc2c1)C(c1ccccc1)c1ccccc1 [Example 12, N-{2-[(3S)-3-{(1,3-benzothiazol-6-ylsulfonyl)[(3,3-difluorocyclobutyl)methyl]amino}-4-hydroxybutyl]phenyl}-Nα-(methoxycarbonyl)-β-phenyl-L-phenylalaninamide] | 1.53 µM | 0.9 nM |  | 
12 | COC(=O)N[C@H](C(=O)Nc1cc(F)ccc1CC[C@@H](CO)N(CC1CC(F)(F)C1)S(=O)(=O)c1ccc2ncsc2c1)C(c1ccccc1)c1ccccc1 [Example 13, N-{2-[(3S)-3-{(1,3-benzothiazol-6-ylsulfonyl)[(3,3-difluorocyclobutyl)methyl]amino}-4-hydroxybutyl]-5-fluorophenyl}-Nα-(methoxycarbonyl)-β-phenyl-L-phenylalaninamide] | 1.18 µM | 1.9 nM |  | 
13 | COC(=O)N[C@@H](Cc1ccccc1Cl)C(=O)Nc1ccccc1CC[C@@H](CO)N(CCC(C)C)S(=O)(=O)c1ccc(N)cc1 [Example 14, N-{2-[(3S)-3-{[(4-aminophenyl)sulfonyl](3-rnethylbutyl)amino}-4-hydroxybutyl]phenyl}-2-chloro-Nα-(methoxycarbonyl)-L-phenylalaninamide] | 1.18 µM | 1.2 nM |  | 
14 | COC(=O)N[C@@H](Cc1ccccc1Cl)C(=O)Nc1ccccc1CC[C@@H](CO)N(Cc1cn[nH]c1)S(=O)(=O)c1ccc(N)cc1 [Example 15, N-{2[(3S)-3-{[(4-aminophenyl)sulfonyl](1H-pyrazol-4-ylmethyl)amino}-4-hydroxybutyl]phenyl}-2-chloro-Nα-(methoxycarbonyl)-L-phenylalaninamide] | 2.44 µM | 1.8 nM |  | 
15 | COC(=O)N[C@H](C(=O)Nc1cccnc1CC[C@@H](CO)N(Cc1cnoc1)S(=O)(=O)c1ccc2ncsc2c1)C(c1ccccc1)c1ccccc1 [Example 18, N-(2-{(3S)-3-[(1,3-benzothiazol-6-ylsulfonyl)(isoxazol-4-ylmethyl)amino]-4-hydroxybutyl}pyridin-3-yl)-Nα-(methoxycarbonyl)-β-phenyl-L-phenylalaninamide] | 0.755 µM | 2.3 nM |  | 
16 | COC(=O)N[C@H](C(=O)Nc1cccnc1CC[C@@H](CO)N(Cc1cncnc1C)S(=O)(=O)c1ccc2ncsc2c1)C(c1ccccc1)c1ccccc1 [Example 19, N-[2[(3S)-3-{(1,3-benzothiazol-6-ylsulfonyl)[(4-methylpyrimidin-5-yl)methyl]amino)-4-hydroxybutyl]pyridin-3-yl]-Nα-(methoxycarbonyl)-β-phenyl-L-phenylalaninamide] | 0.766 µM | 4.2 nM |  | 
17 | COC(=O)N[C@H](C(=O)Nc1cnccc1CC[C@@H](CO)N(Cc1cncnc1C)S(=O)(=O)c1ccc2ncsc2c1)C(c1ccccc1)c1ccccc1 [Example 20, N-{4-[(3S)-3-{(1,3-benzothiazol-6-ylsulfonyl)[(4-methylpyrimidin-5-yl)methyl]amino}-4-hydroxybutyl]pyridin-3-yl}-Nα-(methoxycarbonyl)-β-phenyl-L-phenylalaninamide] | 2.2 µM | 3.5 nM |  | 
18 | COC(=O)N[C@H](C(=O)Nc1c(SC[C@@H](CO)N(CCC(C)C)S(=O)(=O)c2ccc(N)cc2)cc[nH]c1=O)C(c1ccccc1)c1ccccc1 [Example 23, N-(4-{[(2R)-2-{[(4-aminophenyl)sulfonyl](3-methylbutyl)amino}-3-hydroxypropyl]sulfanyl}-2-oxo-1,2-dihydropyridin-3-yl)-Nα-(methoxycarbonyl)-β-phenyl-L-phenyl alaninamide] | 2.5 µM | 0.06 nM |  | 
19 | COC(=O)N[C@H](C(=O)Nc1cnccc1SC[C@@H](CO)N(CC(C)C)S(=O)(=O)c1ccc2ncsc2c1)C(c1ccccc1)c1ccccc1 [Example 24, N-[4-({(2R)-2-[(1,3-benzothiazol-6-ylsulfonyl)(2-methylpropyl)amino]-3-hydroxypropyl}sulfanyl)pyridin-3-yl]-Nα-(methoxycarbonyl)-β-phenyl-L-phenylalaninamide] | 1.12 µM | 4.2 nM |  | 
